Laboratory results reported in paper PMC12446476 (Nature Communications, 2025).
Values after ≈ are worked out from the molar mass of the structure shown. Read-outs that look alike come from different tables or passages of the source.

Test system: non-gonococcal Neisseria
Test: MIC determination for non-gonococcal Neisseria, agar dilution
Format: cell-based, Neisseria species
Settings: read-out: Minimum inhibitory concentration
Source text: The 2024 WHO N. gonorrhoeae reference strains were used for quality control. Only whole MIC doubling dilutions are reported. Clinical breakpoints or the epidemiological cutoff (ECOFF, to indicate azithromycin resistance) from EUCAST (v14.0, https://www.eucast.org/clinical_breakpoints) were used to classify isolates as antimicrobial susceptible or resistant. […] Two times the standard inoculum defined by CLSI was used to establish consistent growth in untreated control samples for some strains. In vitro time-kill assays were performed according to CLSI guidelines[65] using Columbia Broth (BD Difco) supplemented with 1% IsoVitaleX Enrichment (BD). Viable bacterial counts were generated by plating 10-fold serially diluted samples on GC agar plates containing 1% IsoVitaleX Enrichment (BD).

Compound: Cc1c(CN(C)C(=O)/C=C/c2cnc3c(c2)N[C@H](C)[C@H](O)C(=O)N3)oc2ccccc12 [Debio 1453]
- MIC (Neisseria animalis 1, Consensus): 0.25 mg/L (≈ 0.595 µM)
- MIC (Neisseria animalis 1, Replicate 1): 0.25 mg/L (≈ 0.595 µM)
- MIC (Neisseria animalis 1, Replicate 2): 0.25 mg/L (≈ 0.595 µM)
- MIC (Neisseria animalis 1, Replicate 3): 0.25 mg/L (≈ 0.595 µM)
- MIC (Neisseria cinerea 1, Consensus): 0.032 mg/L (≈ 0.0761 µM)
- MIC (Neisseria cinerea 1, Replicate 1): 0.032 mg/L (≈ 0.0761 µM)
- MIC (Neisseria cinerea 1, Replicate 2): 0.032 mg/L (≈ 0.0761 µM)
- MIC (Neisseria cinerea 1, Replicate 3): 0.032 mg/L (≈ 0.0761 µM)
- MIC (Neisseria cinerea 2, Consensus): 0.25 mg/L (≈ 0.595 µM)
- MIC (Neisseria cinerea 2, Replicate 1): 0.25 mg/L (≈ 0.595 µM)
- MIC (Neisseria cinerea 2, Replicate 2): 0.25 mg/L (≈ 0.595 µM)
- MIC (Neisseria cinerea 2, Replicate 3): 0.25 mg/L (≈ 0.595 µM)
- MIC (Neisseria cinerea 3, Consensus): 0.008 mg/L (≈ 0.019 µM)
- MIC (Neisseria cinerea 3, Replicate 1): 0.008 mg/L (≈ 0.019 µM)
- MIC (Neisseria cinerea 3, Replicate 2): 0.016 mg/L (≈ 0.0381 µM)
- MIC (Neisseria cinerea 3, Replicate 3): 0.008 mg/L (≈ 0.019 µM)
- MIC (Neisseria cinerea 6, Consensus): 0.016 mg/L (≈ 0.0381 µM)
- MIC (Neisseria cinerea 6, Replicate 1): 0.032 mg/L (≈ 0.0761 µM)
- MIC (Neisseria cinerea 6, Replicate 2): 0.016 mg/L (≈ 0.0381 µM)
- MIC (Neisseria cinerea 6, Replicate 3): 0.016 mg/L (≈ 0.0381 µM)
- MIC (Neisseria cinerea 7, Consensus): 0.5 mg/L (≈ 1.19 µM)
- MIC (Neisseria cinerea 7, Replicate 1): 0.5 mg/L (≈ 1.19 µM)
- MIC (Neisseria cinerea 7, Replicate 2): 0.5 mg/L (≈ 1.19 µM)
- MIC (Neisseria cinerea 7, Replicate 3): 0.5 mg/L (≈ 1.19 µM)
- MIC (Neisseria cinerea 8, Replicate 1): 0.25 mg/L (≈ 0.595 µM)
- MIC (Neisseria cinerea 9, Consensus): 0.5 mg/L (≈ 1.19 µM)
- MIC (Neisseria cinerea 9, Replicate 1): 0.5 mg/L (≈ 1.19 µM)
- MIC (Neisseria cinerea 9, Replicate 2): 0.5 mg/L (≈ 1.19 µM)
- MIC (Neisseria cinerea 9, Replicate 3): 0.5 mg/L (≈ 1.19 µM)
- MIC (Neisseria elongata 2, Consensus): 2 mg/L (≈ 4.76 µM)
- MIC (Neisseria elongata 2, Replicate 1): 2 mg/L (≈ 4.76 µM)
- MIC (Neisseria elongata 2, Replicate 2): 2 mg/L (≈ 4.76 µM)
- MIC (Neisseria elongata 2, Replicate 3): 2 mg/L (≈ 4.76 µM)
- MIC (Neisseria elongata 3, Consensus): 1 mg/L (≈ 2.38 µM)
- MIC (Neisseria elongata 3, Replicate 1): 1 mg/L (≈ 2.38 µM)
- MIC (Neisseria elongata 3, Replicate 2): 1 mg/L (≈ 2.38 µM)
- MIC (Neisseria elongata 3, Replicate 3): 1 mg/L (≈ 2.38 µM)
- MIC (Neisseria flava 1, Replicate 2): 0.064 mg/L (≈ 0.152 µM)
- MIC (Neisseria flavescens 1, Consensus): 0.016 mg/L (≈ 0.0381 µM)
- MIC (Neisseria flavescens 1, Replicate 1): 0.032 mg/L (≈ 0.0761 µM)
- MIC (Neisseria flavescens 1, Replicate 2): 0.016 mg/L (≈ 0.0381 µM)
- MIC (Neisseria flavescens 1, Replicate 3): 0.016 mg/L (≈ 0.0381 µM)
- MIC (Neisseria flavescens 2, Replicate 2): 0.25 mg/L (≈ 0.595 µM)
- MIC (Neisseria flavescens 3, Consensus): 0.25 mg/L (≈ 0.595 µM)
- MIC (Neisseria flavescens 3, Replicate 1): 0.25 mg/L (≈ 0.595 µM)
- MIC (Neisseria flavescens 3, Replicate 2): 0.25 mg/L (≈ 0.595 µM)
- MIC (Neisseria flavescens 3, Replicate 3): 0.25 mg/L (≈ 0.595 µM)
- MIC (Neisseria flavescens 4, Consensus): 0.5 mg/L (≈ 1.19 µM)
- MIC (Neisseria flavescens 4, Replicate 1): 0.25 mg/L (≈ 0.595 µM)
- MIC (Neisseria flavescens 4, Replicate 2): 0.5 mg/L (≈ 1.19 µM)
- MIC (Neisseria flavescens 4, Replicate 3): 0.5 mg/L (≈ 1.19 µM)
- MIC (Neisseria flavescens 5, Consensus): 0.5 mg/L (≈ 1.19 µM)
- MIC (Neisseria flavescens 5, Replicate 1): 0.25 mg/L (≈ 0.595 µM)
- MIC (Neisseria flavescens 5, Replicate 2): 1 mg/L (≈ 2.38 µM)
- MIC (Neisseria flavescens 5, Replicate 3): 0.5 mg/L (≈ 1.19 µM)
- MIC (Neisseria flavescens 6, Consensus): 0.064 mg/L (≈ 0.152 µM)
- MIC (Neisseria flavescens 6, Replicate 1): 0.064 mg/L (≈ 0.152 µM)
- MIC (Neisseria flavescens 6, Replicate 2): 0.064 mg/L (≈ 0.152 µM)
- MIC (Neisseria flavescens 6, Replicate 3): 0.064 mg/L (≈ 0.152 µM)
- MIC (Neisseria flavescens 7, Consensus): 0.5 mg/L (≈ 1.19 µM)
- MIC (Neisseria flavescens 7, Replicate 1): 0.5 mg/L (≈ 1.19 µM)
- MIC (Neisseria flavescens 7, Replicate 2): 0.5 mg/L (≈ 1.19 µM)
- MIC (Neisseria flavescens 7, Replicate 3): 1 mg/L (≈ 2.38 µM)
- MIC (Neisseria flavescens 8, Replicate 1): 0.064 mg/L (≈ 0.152 µM)
- MIC (Neisseria flavescens 9, Consensus): 1 mg/L (≈ 2.38 µM)
- MIC (Neisseria flavescens 9, Replicate 1): 1 mg/L (≈ 2.38 µM)
- MIC (Neisseria flavescens 9, Replicate 2): 1 mg/L (≈ 2.38 µM)
- MIC (Neisseria flavescens 9, Replicate 3): 1 mg/L (≈ 2.38 µM)
- MIC (Neisseria flavescens 10, Replicate 2): 0.25 mg/L (≈ 0.595 µM)
- MIC (Neisseria flavescens 11, Consensus): 0.5 mg/L (≈ 1.19 µM)
- MIC (Neisseria flavescens 11, Replicate 1): 0.5 mg/L (≈ 1.19 µM)
- MIC (Neisseria flavescens 11, Replicate 2): 1 mg/L (≈ 2.38 µM)
- MIC (Neisseria flavescens 11, Replicate 3): 0.5 mg/L (≈ 1.19 µM)
- MIC (Neisseria flavescens 12, Consensus): 0.064 mg/L (≈ 0.152 µM)
- MIC (Neisseria flavescens 12, Replicate 1): 0.064 mg/L (≈ 0.152 µM)
- MIC (Neisseria flavescens 12, Replicate 2): 0.064 mg/L (≈ 0.152 µM)
- MIC (Neisseria flavescens 13, Consensus): 1 mg/L (≈ 2.38 µM)
- MIC (Neisseria flavescens 13, Replicate 1): 1 mg/L (≈ 2.38 µM)
- MIC (Neisseria flavescens 13, Replicate 2): 1 mg/L (≈ 2.38 µM)
- MIC (Neisseria flavescens 13, Replicate 3): 1 mg/L (≈ 2.38 µM)
- MIC (Neisseria flavescens 14, Consensus): 1 mg/L (≈ 2.38 µM)
- MIC (Neisseria flavescens 14, Replicate 1): 1 mg/L (≈ 2.38 µM)
- MIC (Neisseria flavescens 14, Replicate 2): 1 mg/L (≈ 2.38 µM)
- MIC (Neisseria flavescens 14, Replicate 3): 1 mg/L (≈ 2.38 µM)
- MIC (Neisseria flavescens 15, Consensus): 1 mg/L (≈ 2.38 µM)
- MIC (Neisseria flavescens 15, Replicate 1): 1 mg/L (≈ 2.38 µM)
- MIC (Neisseria flavescens 15, Replicate 2): 1 mg/L (≈ 2.38 µM)
- MIC (Neisseria flavescens 15, Replicate 3): 1 mg/L (≈ 2.38 µM)
- MIC (Neisseria flavescens 16, Consensus): 0.25 mg/L (≈ 0.595 µM)
- MIC (Neisseria flavescens 16, Replicate 1): 0.25 mg/L (≈ 0.595 µM)
- MIC (Neisseria flavescens 16, Replicate 2): 0.25 mg/L (≈ 0.595 µM)
- MIC (Neisseria flavescens 16, Replicate 3): 0.25 mg/L (≈ 0.595 µM)
- MIC (Neisseria flavescens 17, Consensus): 1 mg/L (≈ 2.38 µM)
- MIC (Neisseria flavescens 17, Replicate 1): 1 mg/L (≈ 2.38 µM)
- MIC (Neisseria flavescens 17, Replicate 2): 0.5 mg/L (≈ 1.19 µM)
- MIC (Neisseria flavescens 17, Replicate 3): 1 mg/L (≈ 2.38 µM)
- MIC (Neisseria gonorrhoeae subspecies kochii 1, Consensus): 0.016 mg/L (≈ 0.0381 µM)
- MIC (Neisseria gonorrhoeae subspecies kochii 1, Replicate 1): 0.032 mg/L (≈ 0.0761 µM)
- MIC (Neisseria gonorrhoeae subspecies kochii 1, Replicate 2): 0.016 mg/L (≈ 0.0381 µM)
- MIC (Neisseria gonorrhoeae subspecies kochii 1, Replicate 3): 0.016 mg/L (≈ 0.0381 µM)
- MIC (Neisseria gonorrhoeae subspecies kochii 2, Consensus): 0.008 mg/L (≈ 0.019 µM)
- MIC (Neisseria gonorrhoeae subspecies kochii 2, Replicate 1): 0.008 mg/L (≈ 0.019 µM)
- MIC (Neisseria gonorrhoeae subspecies kochii 2, Replicate 2): 0.008 mg/L (≈ 0.019 µM)
- MIC (Neisseria gonorrhoeae subspecies kochii 2, Replicate 3): 0.008 mg/L (≈ 0.019 µM)
- MIC (Neisseria gonorrhoeae subspecies kochii 3, Consensus): 0.008 mg/L (≈ 0.019 µM)
- MIC (Neisseria gonorrhoeae subspecies kochii 3, Replicate 1): 0.008 mg/L (≈ 0.019 µM)
- MIC (Neisseria gonorrhoeae subspecies kochii 3, Replicate 2): 0.008 mg/L (≈ 0.019 µM)
- MIC (Neisseria gonorrhoeae subspecies kochii 3, Replicate 3): 0.008 mg/L (≈ 0.019 µM)
- MIC (Neisseria lactamica 1, Consensus): 0.032 mg/L (≈ 0.0761 µM)
- MIC (Neisseria lactamica 1, Replicate 1): 0.032 mg/L (≈ 0.0761 µM)
- MIC (Neisseria lactamica 1, Replicate 2): 0.064 mg/L (≈ 0.152 µM)
